Laboratory results: ChEMBL document CHEMBL5038615, “Discovery of a cinnamyl piperidine derivative as new neddylation inhibitor for gastric cancer treatment” (Eur J Med Chem, 2021)
Calls of active or inactive are those of the source. The calls are words filed in the database; no cut-off is given here.

Assays:
MGC-803 [1] = assay: Induction of apoptosis in human MGC-803 cells assessed as early apoptotic cells at 7.5 uM measured after 48 hrs by AnnexinV/FITC staining based flow cytometry method (reference value: 1.5%); type: functional
MGC-803 [2] = assay: Induction of apoptosis in human MGC-803 cells assessed as early apoptotic cells at 5 uM measured after 48 hrs by AnnexinV/FITC staining based flow cytometry method (reference value: 1.5%); type: functional
HGC-27 [3] = assay: Induction of apoptosis in human HGC-27 cells assessed as early apoptotic cells at 3 uM measured after 48 hrs by AnnexinV/FITC staining based flow cytometry method (reference value: 5.8%); type: functional
HGC-27 [4] = assay: Induction of apoptosis in human HGC-27 cells assessed as viable cells at 6 uM measured after 48 hrs by AnnexinV/FITC staining based flow cytometry method (reference value: 93.18%); type: functional; conditions: read-out: Activity
HGC-27 [5] = assay: Antiproliferative activity against human HGC-27 cells assessed as inhibition of cell proliferation at 0.39 to 50 uM measured upto 72 hrs by MTT assay; type: functional, cell-based; conditions: dose 0.39-50 µM, time hrs <=72
MGC-803 [6] = assay: Antiproliferative activity against human MGC-803 cells assessed as cell survival at 7.5 uM pre-incubated with Z-VAD-FMK followed by compound addition and measured after 24 hrs by MTT assay; type: functional, cell-based
HepG2 = assay: Antiproliferative activity against human HepG2 cells assessed as inhibition of cell proliferation measured after 72 hrs by MTT assay; type: functional, cell-based; conditions: HepG2, 72 h
MGC-803 [7] = assay: Cell cycle arrest in human MGC-803 cells assessed as accumulation of cells at G2/M phase at 2.5 uM measured after 24 hrs by Flowcytometry assay (reference value: 13.71%); type: functional
MGC-803 [8] = assay: Antiproliferative activity against human MGC-803 cells assessed as inhibition of cell proliferation measured after 72 hrs by MTT assay; type: functional, cell-based; conditions: MGC-803, 72 h
MGC-803 [9] = assay: Induction of apoptosis in human MGC-803 cells assessed as viable cells at 5 uM measured after 48 hrs by AnnexinV/FITC staining based flow cytometry method (reference value: 97.4%); type: functional; conditions: read-out: Activity
HGC-27 [10] = assay: Induction of apoptosis in human HGC-27 cells assessed as ROS levels at 6 uM measured after 24 hrs by DCFH-DA staining based flow cytometry assay (reference value: 6.8%); type: functional
MGC-803 [11] = assay: Cell cycle arrest in human MGC-803 cells assessed as accumulation of cells at G0/G1 phase at 7.5 uM measured after 24 hrs by Flowcytometry assay (reference value: 46.01%); type: functional
MGC-803 [12] = assay: Induction of apoptosis in human MGC-803 cells assessed as up-regulation of Nrf2 expression at 2.5 to 7.5 uM measured after 24 hrs by Western blot assay; type: functional, cell-based; conditions: dose 2.5-7.5 µM
HGC-27 [13] = assay: Induction of apoptosis in human HGC-27 cells assessed as viable cells at 9 uM measured after 48 hrs by AnnexinV/FITC staining based flow cytometry method (reference value: 93.18%); type: functional; conditions: read-out: Activity
MGC-803 [14] = assay: Induction of apoptosis in human MGC-803 cells assessed as early apoptotic cells at 2.5 uM measured after 48 hrs by AnnexinV/FITC staining based flow cytometry method (reference value: 1.5%); type: functional
MGC-803 [15] = assay: Induction of apoptosis in human MGC-803 cells assessed as late apoptotic cells at 7.5 uM measured after 24 hrs by AnnexinV/FITC staining based flow cytometry method (reference value: 2%); type: functional
HGC-27 [16] = assay: Induction of apoptosis in human HGC-27 cells assessed as late apoptotic cells at 3 uM measured after 48 hrs by AnnexinV/FITC staining based flow cytometry method (reference value: 1%); type: functional
MGC-803 [17] = assay: Induction of apoptosis in human MGC-803 cells assessed as ROS levels at 2.5 uM measured after 24 hrs by DCFH-DA staining based flow cytometry assay (reference value: 3.3%); type: functional
MGC-803 [18] = assay: Induction of apoptosis in human MGC-803 cells assessed as necrotic cells at 5 uM measured after 24 hrs by AnnexinV/FITC staining based flow cytometry method (reference value: 1.9%); type: functional
MGC-803 [19] = assay: Cell cycle arrest in human MGC-803 cells assessed as accumulation of cells at G2/M phase at 5 uM measured after 24 hrs by Flowcytometry assay (reference value: 13.71%); type: functional
HGC-27 [20] = assay: Induction of apoptosis in human HGC-27 cells assessed as early apoptotic cells at 6 uM measured after 24 hrs by AnnexinV/FITC staining based flow cytometry method (reference value: 0.7%); type: functional
MGC-803 [21] = assay: Induction of apoptosis in human MGC-803 cells assessed as necrotic cells at 2.5 uM measured after 48 hrs by AnnexinV/FITC staining based flow cytometry method (reference value: 0.2%); type: functional
MGC-803 [22] = assay: Cell cycle arrest in human MGC-803 cells assessed as accumulation of cells at G0/G1 phase at 2.5 uM measured after 24 hrs by Flowcytometry assay (reference value: 46.01%); type: functional
[23] = molecular target: T1, NEDD8-activating enzyme E1 regulatory subunit (Homo sapiens) (UniProt Q13564); assay: Inhibition of NAE-mediated neddylation in human MGC-803 cells assessed as cullin3-Nedd8 adduct formation at 2.5 to 7.5 uM measured after 24 hrs by western blot assay; type: cell-based; conditions: dose 2.5-7.5 µM
T1 sequence (whole entry): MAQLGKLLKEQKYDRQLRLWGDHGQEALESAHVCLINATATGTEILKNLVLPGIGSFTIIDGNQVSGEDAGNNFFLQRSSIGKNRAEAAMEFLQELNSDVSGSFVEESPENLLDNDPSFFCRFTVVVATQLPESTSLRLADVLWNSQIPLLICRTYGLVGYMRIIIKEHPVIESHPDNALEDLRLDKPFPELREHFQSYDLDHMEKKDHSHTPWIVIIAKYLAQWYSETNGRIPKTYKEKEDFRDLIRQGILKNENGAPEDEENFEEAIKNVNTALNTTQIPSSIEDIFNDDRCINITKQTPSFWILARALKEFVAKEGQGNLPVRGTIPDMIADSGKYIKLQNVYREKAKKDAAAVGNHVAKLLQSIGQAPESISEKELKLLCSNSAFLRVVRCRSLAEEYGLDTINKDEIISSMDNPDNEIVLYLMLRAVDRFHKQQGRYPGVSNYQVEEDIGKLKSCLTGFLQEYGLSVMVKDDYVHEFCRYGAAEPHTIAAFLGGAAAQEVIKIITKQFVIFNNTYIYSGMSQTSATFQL

HGC-27 [24] = assay: Induction of apoptosis in human HGC-27 cells assessed as viable cells at 9 uM measured after 24 hrs by AnnexinV/FITC staining based flow cytometry method (reference value: 95.7%); type: functional; conditions: read-out: Activity
MGC-803 [25] = assay: Induction of apoptosis in human MGC-803 cells assessed as viable cells at 7.5 uM measured after 24 hrs by AnnexinV/FITC staining based flow cytometry method (reference value: 94.8%); type: functional; conditions: read-out: Activity
MGC-803 [26] = assay: Inhibition of cell migration in human MGC-803 cells at 5 uM measured after 48 hrs by wound healing assay based inverted microscopic analysis; type: functional
MGC-803 [27] = assay: Induction of apoptosis in human MGC-803 cells assessed as early apoptotic cells at 2.5 uM measured after 24 hrs by AnnexinV/FITC staining based flow cytometry method (reference value: 1.3%); type: functional

How did the Activity (MGC-803 [1]) turn out when CCCCCc1ccc(NC(=O)C2CCN(C/C=C/c3ccccc3)CC2)cc1 was run?
Its Activity is 4%.

And the Activity (MGC-803 [2])?
The Activity was 9.8%.

What about the Activity (HGC-27 [3]) of the same compound?
Its Activity is 6.2%.

What about the viability at 6 µM (HGC-27 [4]) of the same compound?
The viability at 6 µM was 45.8%.

And the Activity (HGC-27 [5])?
Its Activity is “Dose-Dependent Effect”.

And the Activity (MGC-803 [6])?
The Activity was “Active”.

And the IC50 (HepG2)?
The IC50 was 2890 nM.

What about the Activity (MGC-803 [7]) of the same compound?
Its Activity is 17.77%.

And the IC50 (MGC-803 [8])?
The IC50 was 2550 nM.

What about the viability at 5 µM (MGC-803 [9]) of the same compound?
The viability at 5 µM was 38.4%.

What about the Activity (HGC-27 [10]) of the same compound?
Its Activity is 14.5%.

And the Activity (MGC-803 [11])?
Its Activity is 37.06%.

And the Activity (MGC-803 [12])?
Its Activity is “Active”.

And the viability at 9 µM (HGC-27 [13])?
The viability at 9 µM was 0.3%.

What about the Activity (MGC-803 [14]) of the same compound?
The Activity was 3%.

And the Activity (MGC-803 [15])?
The Activity was 82.4%.

What about the Activity (HGC-27 [16]) of the same compound?
The Activity was 7%.

What about the Activity (MGC-803 [17]) of the same compound?
The Activity was 4%.

What about the Activity (MGC-803 [18]) of the same compound?
The Activity was 8.2%.

What about the Activity (MGC-803 [19]) of the same compound?
The Activity was 19.31%.

What about the Activity (HGC-27 [20]) of the same compound?
The Activity was 23.1%.

And the Activity (MGC-803 [21])?
The Activity was 2.9%.

What about the Activity (MGC-803 [22]) of the same compound?
Its Activity is 48.87%.

And the inhibition [23]?
The inhibition was “Active”.

What about the viability at 9 µM (HGC-27 [24]) of the same compound?
Its viability at 9 µM is 20.9%.

What about the viability at 7.5 µM (MGC-803 [25]) of the same compound?
Its viability at 7.5 µM is 9.1%.

What about the inhibition at 5 µM (MGC-803 [26]) of the same compound?
Its inhibition at 5 µM is 40%.

And the Activity (MGC-803 [27])?
The Activity was 2.1%.
